# Assay results published in patent publication US20250114377A1, “TWO-PRONGED TREATMENT FOR NIEMANN PICK TYPE C DISEASE” (UNIVERSITY OF NOTRE DAME DU LAC, priority 2022, published 2025).
# Entries after “also recorded” stand apart in the source; their conditions may differ.
# What was measured:
# [1] = system: StARD9 mutant (null or truncation mutant) cells; assay: Rescue of lysosomal tubulation by 27-HC in StARD9 mutant cells (FIG. 5); format: cell-based; conditions: 27-HC in a cocktail that bypasses receptor-mediated endocytosis
# Excerpt: (§1) FIG. 5. Impact of NPC1 and StARD9 Mutations on Rescue of Lysosomal Tubulation by 27-Hydroxycholesterol (27-HC). The ability of 27-HC to rescue lysosomal tubulation after depletion of NPC1 (shRNA-NPC1) or StARD9 (shRNA-STARD9) was compared to cells expressing the NPC1 (I1061T)-eGFP mutant (I1061T) or a eGFP-StARD9 construct expressing amino acids 1-4483 (STARD9-ΔSTART). ***—p<0.005; ns (not significant).
# (§2) To test this idea, we treated either NPC1 mutant (null or I1061T) or StARD9 mutant (null or truncation mutant) cells with 27-HC in a cocktail that delivers it into the cytoplasm independent of receptor-mediated endocytosis. […] Next, we treated NPC1(−/−) mice with 27-HC by i.p. delivery.
# [2] = system: lysosomal tubulation; assay: Rescue of lysosomal tubulation with purified oxysterols in LDL-depleted media (FIG. 4); format: cell-based
# Experimental: FIG. 4. Rescue of Lysosomal Tubulation with Purified Oxysterols. Measurements of lysosomal tubulation comparing control complete media (Control) to media depleted of LDL (LDL−) and depleted media supplemented with 27-hydroxycholesterol (27-HC), 24-hydroxycholesterol (24-HC) or 25-hydroxycholesterol (25-HC).
# Fixed and live-cell imaging was performed on COS-7 cells grown in Dulbecco's Modified Eagle's Medium (DMEM) supplemented with 10% fetal bovine serum, 1% L-glutamine, and penicillin/streptomycin (Sigma-Aldrich). Transfections were performed using either Lipofectamine (Life Technologies), X-treme Gene DNA Transfection reagent (Roche, Indianapolis, IN) or Nanofect (Allstem, Richmond, CA). J774A.1 mouse macrophages were provided and cultured in the same media. Cells were tested for contamination using PCR-based test kits (Sartorius, Inc.; Cat #SMB95-1001).
# Microscopy experiments were performed on a Zeiss Axiovert 200M (Thornwood, NY) run by Metamorph software (Sunnyvale, CA). Fixed and live cell imaging data was collected using either a Photometrics Coolsnap HQ or Cascade 1k CCD camera (Tucson, AZ). Timelapse imaging of cells expressing NPC1-EGFP and mCherry-StARD9 utilized a Dual-view camera (Photometrics) adapter to allow simultaneous acquisition of green and red channels at each timepoint. Kymographs were generated in Metamorph using a 1p m slice from each frame.
# as §2
# [3] = system: NPC1 mutant (null or I1061T) cells; assay: Rescue of lysosomal tubulation by 27-HC in NPC1 mutant cells (FIG. 5); format: cell-based; conditions: 27-HC in a cocktail that bypasses receptor-mediated endocytosis
# Excerpt: as §1, §2
# [4] = system: StARD9(−/−)/NPC1 (I1061T/I1061T) mice; assay: 27-HC treatment of mice mutant for both NPC1 and StARD9 / StARD9 knock-out mice; format: in vivo; conditions: 5 mg/kg three times per week oral gavage; vs NPC1 (I1061T/I1061T) mice; p=0.0001
# Experimental: FIG. 12. Impact of 27-HC Treatment on NPC1 (I1061T/I1061T)/StARD9 (−/−) Mice. Kaplan-Meier lifespan analysis of NPC1 (I1061T/I1061T) mice (solid line) to StARD9(−/−)/NPC1 (I1061T/I1061T) mice (dashed line) each treated with 5 mg/kg 27-HC three times per week by oral gavage.
# Mutations in the NPC1 gene affect two independent lysosomal functions. The first is the generation of lysosomal tubules as a mechanism to deliver intracellular cholesterol to other membrane-bound compartments. Because this function is impaired in NPC disease, we investigated the protein components necessary for tubule projection. We identified 27-HC as a signaling molecule that stimulates lysosomal tubulation and is not provided properly to lysosomal membrane to elicit tubulation in NPC disease. To correct this defect, we provide pure 27-HC in a cocktail that bypasses endocytosis. […] We have also tested this therapy in two different transgenic strains of mice with NPC1 mutations. […] Because we know the molecular target for 27-HC (StARD9), we tested 27-HC treatment in mice where we removed the StARD9 gene. […] This confirms the molecular target for 27-HC treatment and is consistent with our proposed model for the defects in NPC disease. Independent of the role for NPC1 in lysosomal tubulation, NPC1 is the “receptor” for the pro-apoptotic protein STING. […]
structure (smiles),measurement,setting,value
"C[C@@H](CO)CCC[C@@H](C)[C@H]1CC[C@H]2[C@@H]3CC=C4C[C@@H](O)CC[C@]4(C)[C@H]3CC[C@]12C [27-HC, 27-hydroxycholesterol]",Rescue of lysosomal tubulation in StARD9 mutant cells,[1],not StARD9 mutant cells
same,Potency as signaling molecule for StARD9 among cholesterol and individual oxysterols,[2],most potent candidate
same,Rescue of lysosomal tubulation in NPC1 mutant cells,[3],rescued lysosomal tubulation in NPC1 mutant; also recorded: corrects the lysosomal tubulation defects
same,Benefit of 27-HC treatment (lifespan) in mice lacking StARD9,[4],the benefit of the 27-HC treatment was lost; also recorded: significantly less effective; also recorded: does not provide any benefit
